Earlier results on one substance are cited in publication PMC2804221 (The Journal of Biological Chemistry, 2009).

The subject of data set [1] is GLP-1R.
For data set [2], the system named is isolated ECD of GLP-1R.

As usually defined, the IC50 is the concentration needed to halve the response being measured. On to “Exendin-4(9–39): truncated form of exendin-4, and a competitive antagonist”, for which, in data set [1], the “mode of action at GLP-1R” value is “competitive antagonist”. Further, the IC50 in data set [2] was 6 nM.
